Source: patent publication US20220195487A1, “Method for Measuring Inhibition of Bacteria by Antibacterial Drug, and Bacterial Counting Device and Method Thereof” (BEIJING XINJI JINNUO MEDICAL EQUIPMENT CO.,LTD., priority 2019, published 2022)
≈ marks a conversion by molar mass, not a printed value.

Columns and labels:
Format in all cases: cell-based
[1] = test system: Staphylococcus aureus (ATCC29213); experiment: 2 h susceptibility by resistance bacterial counter; conditions: Example 3, resistance counting, 2 h at 37° C., 60% of the positive count value as threshold
Experimental: 2.2.1 Preparation of bacterial strains: In accordance with the requirements of the CLSI standards, pick each fresh strains within 24 h with a turbidity of 0.5 McFarland units in the column of strain name in Table 5;
2.2.2 Inoculation: Take 100 μL of each bacterial suspension with a turbidity of 0.5 McFarland units and dispense to a 48-well plate with pre-configured gradient antibiotics, 500 μL dispensed in each well;
2.2.3 Incubation and detection: Incubate for 2 h at 37° C., and measure with a resistance bacterial counter. Adjust the instrument to its best sensitivity and then count bacteria. Record the 24 h routine susceptibility results for comparative analysis.

[2] = test system: Staphylococcus aureus (ATCC29213); experiment: 24 h routine (conventional) drug susceptibility testing by visual observation
[3] = test system: Staphylococcus aureus (ATCC29213); experiment: rapid drug susceptibility testing of living cells (live bacteria counting, 2 h); conditions: for Living cell counts: 2 h
Experimental: 1.2.1 Preparation of bacterial strains: in accordance with the requirements of the CLSI standards, pick each fresh strains within 24 h with a turbidity of 0.5 McFarland units in the column of strain name in Table 7.
1.2.2 Inoculation: take 100 μL of each bacterial suspension with a turbidity of 0.5 McFarland units and dispense to a 48-well plate with pre-configured gradient antibiotics, 500 μL dispensed in each well.
1.2.3 Incubation and detection: incubate for 2 h at 37° C., and perform live bacteria counting. Record the 24 h routine susceptibility results for comparative analysis.

CC[C@H]1OC(=O)[C@H](C)[C@@H](O[C@H]2C[C@@](C)(OC)[C@@H](O)[C@H](C)O2)[C@H](C)[C@@H](O[C@@H]2O[C@H](C)C[C@H](N(C)C)[C@H]2O)[C@](C)(O)C[C@@H](C)C(=O)[C@H](C)[C@@H](O)[C@]1(C)O [Erythromycin]
2 hMIC [1]: 0.5
24 hMIC ([2]; Example 3, 24 h routine susceptibility): 0.25
MIC, conventional drug susceptibility testing ([2]; Example 4, 24 h routine susceptibility): 0.25 µg/mL (≈ 0.341 µM)
Living cell counts ([3]; 0.03 μg/mL): 5107 cells/μL
Living cell counts ([3]; 0.06 μg/mL): 5078 cells/μL
Living cell counts ([3]; 0.12 μg/mL): 3980 cells/μL
Living cell counts ([3]; 0.25 μg/mL): 889 cells/μL
Living cell counts ([3]; 0.5 μg/mL): 609 cells/μL
Living cell counts ([3]; 1 μg/mL): 598 cells/μL
Living cell counts ([3]; 2 μg/mL): 498 cells/μL
Living cell counts ([3]; 4 μg/mL): 460 cells/μL
Living cell counts ([3]; 8 μg/mL): 446 cells/μL
Living cell counts ([3]; 16 μg/mL): 457 cells/μL
MIC, rapid drug susceptibility testing of living cells ([3]; Example 4, live bacteria counting, 2 h at 37° C.): 0.25 µg/mL
